According to patent US12559502B2, “Thieno pyrimidines as ferroportin inhibitors” (Global Blood Therapeutics, Inc., priority 2020, dated 2026):

Molecular target: T1, human ferroportin (Homo sapiens, UniProt Q9NP59)
T1 construct: expressed in transfected cells; host or cells: CHO cells, stably transfected, doxycycline-inducible
T1 sequence (Q9NP59 1-571): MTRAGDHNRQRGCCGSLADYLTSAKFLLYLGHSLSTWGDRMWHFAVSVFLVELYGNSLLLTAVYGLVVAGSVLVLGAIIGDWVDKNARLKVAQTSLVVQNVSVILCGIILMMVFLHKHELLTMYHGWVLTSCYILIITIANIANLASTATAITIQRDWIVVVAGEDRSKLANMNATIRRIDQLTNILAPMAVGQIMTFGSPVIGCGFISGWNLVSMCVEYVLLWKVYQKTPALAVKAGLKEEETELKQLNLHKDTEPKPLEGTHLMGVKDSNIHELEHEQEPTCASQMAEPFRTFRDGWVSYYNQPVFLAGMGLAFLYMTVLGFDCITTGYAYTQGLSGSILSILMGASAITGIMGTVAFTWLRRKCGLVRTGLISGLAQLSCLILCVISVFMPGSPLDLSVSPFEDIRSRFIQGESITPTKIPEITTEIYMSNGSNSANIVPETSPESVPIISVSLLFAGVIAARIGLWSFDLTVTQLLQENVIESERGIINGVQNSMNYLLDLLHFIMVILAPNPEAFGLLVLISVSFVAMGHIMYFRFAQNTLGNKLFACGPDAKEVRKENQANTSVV
Test: In-vitro ferroportin internalization assay (luciferase reporter)
Type: cell-based
Details: average pEC50; stably-transfected CHO cell line expressing human ferroportin tagged to a luciferase reporter; 6 h incubation with test compound; luciferase activity (Nano-Glo)
Procedure: The protocol for this assay is generally as described in WO2018/128828, incorporated herein by reference in its entirety. Functional internalization of ferroportin protein was measured using a stably-transfected CHO cell line expressing the human ferroportin tagged to a luciferase reporter. Cells were plated for 24 h in the presence of ferric ammonium citrate (FAC). Ferroportin protein expression was induced with doxycycline for 24 h. The next day, the compounds were added. Test compounds were dissolved in DMSO. Cells were incubated with the test compounds for 6 h, and subsequently luciferase activity was measured using the Nano-Glo Luciferase Assay System and Glomax (Promega, Madison, WI).
The average pEC50 was determined for the test compounds.

| pEC50 | Structure (SMILES) |
| --- | --- |
| 6.6 | COc1ccnc(-c2nc(N(C)CC(=O)Nc3ccc(OC)nc3)c3ccsc3n2)c1 [Compound 7, 2-{[2-(4-methoxypyridin-2-yl)thieno[2,3-d]pyrimidin-4-yl](methyl)amino}-N-(6-methoxypyridin-3-yl)acetamide] |
| 7.8 | COc1cccc(NC(=O)CN(C)c2nc(-c3cc(OCCO)ccn3)nc3sc(C)c(C)c23)c1 [Compound 8, 2-({2-[4-(2-hydroxyethoxy)pyridin-2-yl]-5,6-dimethylthieno[2,3-d]pyrimidin-4-yl}(methyl)amino)-N-(3-methoxyphenyl)acetamide] |
| 7.7 | Cc1sc2nc(-c3cc(OCCO)ccn3)nc(N(C)CC(=O)Nc3cccc(F)c3)c2c1C [Compound 9, N-(3-fluorophenyl)-2-({2-[4-(2-hydroxyethoxy)pyridin-2-yl]-5,6-dimethylthieno[2,3-d]pyrimidin-4-yl}(methyl)amino)acetamide] |
| 7.6 | Cc1ccc(NC(=O)CN(C)c2nc(-c3cc(OCCO)ccn3)nc3sc(C)c(C)c23)cn1 [Compound 10, 2-({2-[4-(2-hydroxyethoxy)pyridin-2-yl]-5,6-dimethylthieno[2,3-d]pyrimidin-4-yl}(methyl)amino)-N-(6-methylpyridin-3-yl)acetamide] |
| 7.5 | COc1ccc(NC(=O)CN(C)c2nc(-c3cc(OCCO)ccn3)nc3sc(C)c(C)c23)cn1 [Compound 11, 2-([2-[4-(2-hydroxyethoxy)pyridin-2-yl]-5,6-dimethylthieno[2,3-d]pyrimidin-4-yl](methyl)amino)-N-(6-methoxypyridin-3-yl)acetamide] |
| 7.1 | Cc1ccc(NC(=O)CN(C)c2nc(-c3cn(C)cn3)nc3sc(C)c(C)c23)cn1 [Compound 12, 2-{[5,6-dimethyl-2-(1-methyl-1H-imidazol-4-yl)thieno[2,3-d]pyrimidin-4-yl](methyl)amino}-N-(6-methylpyridin-3-yl)acetamide] |
| 7.1 | COc1ccc(NC(=O)CN(C)c2nc(-c3cn(C)cn3)nc3sc(C)c(C)c23)cn1 [Compound 13, 2-{[5,6-dimethyl-2-(1-methyl-1H-imidazol-4-yl)thieno[2,3-d]pyrimidin-4-yl](methyl)amino}-N-(6-methoxypyridin-3-yl)acetamide] |
| 7 | Cc1sc2nc(-c3cn(C)cn3)nc(N(C)CC(=O)NC(C)(C)C)c2c1C [Compound 14, N-tert-butyl-2-{[5,6-dimethyl-2-(1-methyl-1H-imidazol-4-yl)thieno[2,3-d]pyrimidin-4-yl](methyl)amino}acetamide] |
| 7.8 | Cc1sc2nc(-c3cc(OCCO)ccn3)nc(N(C)CC(=O)NC(C)(C)C)c2c1C [Compound 15, N-tert-butyl-2-({2-[4-(2-hydroxyethoxy)pyridin-2-yl]-5,6-dimethylthieno[2,3-d]pyrimidin-4-yl}(methyl)amino)acetamide] |
| 7.6 | COc1ccc(NC(=O)CN(C)c2nc(-c3cc(OCCO)ccn3)nc3sc(C)cc23)cn1 [Compound 16, 2-({2-[4-(2-hydroxyethoxy)pyridin-2-yl]-6-methylthieno[2,3-d]pyrimidin-4-yl}(methyl)amino)-N-(6-methoxypyridin-3-yl)acetamide] |
| 7.7 | COc1ccc(NC(=O)CN(C)c2nc(-c3cc(OCCO)ccn3)nc3scc(C)c23)cn1 [Compound 17, 2-({2-[4-(2-hydroxyethoxy)pyridin-2-yl]-5-methylthieno[2,3-d]pyrimidin-4-yl}(methyl)amino)-N-(6-methoxypyridin-3-yl)acetamide] |
| 7.8 | Cc1sc2nc(-c3cc(OCCN(C)C)ccn3)nc(N(C)CC(=O)NC(C)(C)C)c2c1C [Compound 18, N-tert-butyl-2-[(2-{4-[2-(dimethylamino)ethoxy]pyridin-2-yl}-5,6-dimethylthieno[2,3-d]pyrimidin-4-yl)(methyl)amino]acetamide] |
| 7.6 | Cc1sc2nc(-c3cc(O[C@@H]4CCN(C)C4)ccn3)nc(N(C)CC(=O)NC(C)(C)C)c2c1C [Compound 19, N-tert-butyl-2-{[5,6-dimethyl-2-(4-{[(3R)-1-methylpyrrolidin-3-yl]oxy}pyridin-2-yl)thieno[2,3-d]pyrimidin-4-yl](methyl)amino}acetamide] |
| 8 | Cc1sc2nc(-c3cc(OCCN4CCOCC4)ccn3)nc(N(C)CC(=O)NC(C)(C)C)c2c1C [Compound 20, N-tert-butyl-2-[(5,6-dimethyl-2-{4-[2-(morpholin-4-yl)ethoxy]pyridin-2-yl}thieno[2,3-d]pyrimidin-4-yl)(methyl)amino]acetamide] |
| 7.8 | Cc1sc2nc(-c3cc(OCCN4CCN(C)CC4)ccn3)nc(N(C)CC(=O)NC(C)(C)C)c2c1C [Compound 21, N-tert-butyl-2-[(5,6-dimethyl-2-{4-[2-(4-methylpiperazin-1-yl)ethoxy]pyridin-2-yl}thieno[2,3-d]pyrimidin-4-yl)(methyl)amino]acetamide] |
| 7.5 | Cc1sc2nc(-c3cc(OCCN(C)C)ccn3)nc(N(C)CC(=O)NC3(C(F)(F)F)CC3)c2c1C [Compound 22, 2-[(2-{4-[2-(dimethylamino)ethoxy]pyridin-2-yl}-5,6-dimethylthieno[2,3-d]pyrimidin-4-yl)(methyl)amino]-N-[1-(trifluoromethyl)cyclopropyl]acetamide] |
| 8.2 | Cc1sc2nc(-c3cc(OCCN4C[C@@H]5C[C@H]4CO5)ccn3)nc(N(C)CC(=O)NC(C)(C)C)c2c1C [Compound 23, N-tert-butyl-2-{[5,6-dimethyl-2-(4-{2-[(1S,4S)-2-oxa-5-azabicyclo[2.2.1]heptan-5-yl]ethoxy}pyridin-2-yl)thieno[2,3-d]pyrimidin-4-yl](methyl)amino}acetamide] |
| 8 | Cc1sc2nc(-c3cc(OCCn4ccnc4)ccn3)nc(N(C)CC(=O)NC(C)(C)C)c2c1C [Compound 24, N-tert-butyl-2-[(2-{4-[2-(1H-imidazol-1-yl)ethoxy]pyridin-2-yl}-5,6-dimethylthieno[2,3-d]pyrimidin-4-yl)(methyl)amino]acetamide] |
